Patent US11421010B2, “T cells expressing membrane-anchored IL-12 for the treatment of cancer” (Board of Regents, The University of Texas System, priority 2016, dated 2022)

Key:
Lck/JAK/STAT3 signaling [1] = experiment: NKG2D expression with CD80-Fc plus inhibitors of STAT3 activation, mouse CD8^+ T cells; format: cell-based; conditions: 24 h
Procedure: (§1) FIGS. 24A-24B: Blockade of Lck/JAK/STAT3 signaling abolishes CD28 activation-mediated induction of NKG2D expression on mouse and human CD8^+ T cells. (A, B) Mouse (A) and human (B) CD8^+ T cells were stimulated with anti-CD3 microbeads and treated with control Fc or CD80-FC in the presence or absence of the pharmacologic inhibitor JSI-124, PP2, or AG-490 for 24 h. The CD80+ vehicle has the highest expression of NKG2D. NKG2D expression on the surface of CD8^+ T cells was measured using flow cytometry. The bar graphs show the median (±SEM) MFI of NKG2D (n=3). The data are representative of three repeated experiments.
(§2) If NKG2D expression is induced by CD80-Fc-based treatment via pSTAT3, inhibition of any upstream activators of STAT3 should abrogate NKG2D induction. A time course study was performed to assess the toxicity of the pharmacologic inhibitors to mouse and human CD8^+ T cells. […] Therefore, to test the hypothesis, mouse and human CD8^+ T cells were enriched and treated with control Fc, CD80-Fc plus control vehicle, or CD80-Fc plus inhibitors of STAT3 activation, including PP2, AG490, and JSI-124, for 24 h.

STAT3 [2] = experiment: Immunoblot of pSTAT3 with pharmacologic inhibitors, mouse CD8^+ T cells; format: cell-based; conditions: PP2 (1 nM); 1 h
Procedure: (§3) FIG. 23: Elevated STAT3 phosphorylation resulting from CD80 binding-mediated CD28 activation via the tyrosine kinase Lck/JAK/STAT3 signaling pathway. The effect of CD28 activation and treatment with pharmacologic inhibitors on the expression of pSTAT, total STAT, and b-actin according to immunoblot assay. Mouse and human CD8^+ T cells were stimulated with anti-CD3 microbeads and treated with ctrl Fc or CD80-Fc in the presence or absence of the pharmacologic inhibitor JSI-124 […], PP2 (1 nM), or AG-490 ([…]) for 24 h. Vehicle control is included. The intensity quantification shown ([…]/intensity of β-actin) represents the mean intensity from three repeated experiments.
(§4) Because NKG2D expression on NK cells is regulated by pSTAT3, the next question was whether pSTAT3 expression is induced in CD8^+ T cells by activation of CD28. To address this question, the pSTAT3 expression was measured in both mouse and human CD8^+ T cells after incubation with control IgG or CD80-Fc for 15 and 30 min, as well as 1 and 2 h via intracellular flow cytometric staining. […] Given that CD28 activation in CD8^+ T cells results in STAT3 phosphorylation, it was sought to determine how CD28 activates JAK/STAT3 signaling in CD8^+ T cells. In these cells, the co-stimulatory receptor CD28 strengthens TCR signaling via sustained activation of the tyrosine kinase Lck which in turn recruits and activates ZAP70. […] Thus a pharmacologic model was established to determine whether Lck/ZAP70, as an upstream kinase cascade, activates STAT3 in CD8^+ T cells. Mouse and human CD8^+ T cells were enriched (FIG. 29) and stimulated with anti-CD3 microbeads and incubated with control IgG or CD80-Fc in the presence or absence of the pharmacologic inhibitor PP2, AG-490, or JSI-124 for 1 h. PP2 was employed because it is a specific Src-family kinase inhibitor sensitive to blockade of Lck activation. Also, AG-490 can inhibit activation of JAK/STAT3 signaling. […] To validate the crucial role of pSTAT3, the expression of pSTAT1 and pSTAT5 was also assessed. […]

Lck/JAK/STAT3 signaling [3] = experiment: NKG2D expression with CD80-Fc plus inhibitors of STAT3 activation, human CD8^+ T cells; format: cell-based; conditions: 24 h
Procedure: as §1, §2

STAT3 [4] = experiment: Immunoblot of pSTAT3 with pharmacologic inhibitors, human CD8^+ T cells; format: cell-based; conditions: PP2 (1 nM); 1 h
Procedure: as §3, §4

K562 cells = experiment: Degranulation assay (CD107a), human CD8^+ T cells exposed to K562 cells; format: cell-based; conditions: after exposure to target cells, ratio 1:1, 4 h
Procedure: (§5) FIGS. 25A-25D: Augmentation of CD8^+ T-cell antitumor cytolytic activity by treatment with CD80-Fc. (A-C) Induction of antitumor cytolytic activity by mouse CD8^+ T cells after exposure to Rae-1^+ LLC cells. Splenocytes were collected from LLC-bearing mice on day 14 after tumor-cell inoculation. CD8^+ T cells were isolated from splenocytes and treated with control Fc or CD80-Fc in the presence or absence of an anti-NKG2D antibody or JSI-124 for 24 h. (A) CD8^+ T cells were co-incubated with CFSE-labeled LLC cells at a ratio of 25:1 (E:T) for 5 h. The cell culture medium was subjected to ELISA analysis of perforin. The bar graphs show the median (±SEM) normalized concentration of perforin (n=3). (B) Flow cytometry analysis of NKG2D ligand Rae-1 expression on LLC tumor cells. (C) CD8^+ T cells were co-incubated with CFSE-labeled LLC cells at ratios of 5:1, 10:1, and 25:1 (E:T) for 5 h. After incubation, the cells were stained with PI (1 mg/mL). […] Survival of the target cells was measured as the percentage of normalized target cells that remained after incubation with CD8^+ T cells. […]
(§6) In a similar manner, the cytolytic activity of human CD8^+ T cells was assessed in terms of their degranulation upon CD28 activation. The ability of CD8^+ T cells to undergo degranulation was evaluated in response to exposure to target tumor cells by the induction of cell surface marker CD107a. […]

[5] = as above; format: cell-based; conditions: 24 h treatment
Procedure: as §5, §6

human CD8^+ T cells = experiment: CD8^+ T cell viability after JSI-124 (7-AAD), human; format: cell-based; conditions: 48 h, JSI-124 0.1 μM, versus vehicle control
Procedure: (§7) FIGS. 30A-30B: CD8^+ T cell viability after JSI-124 treatment. Freshly enriched mouse (A) and human (B) CD8^+ T cells were treated with vehicle control or JSI-124 (0.1 μM) for 1, 2, 3, and 4 days. Cell viability was assessed after 7-AAD staining via flow cytometry.
as §2

LLC cells = experiment: Cytotoxic T-lymphocyte assay against CFSE-labeled LLC cells; format: cell-based, mouse; conditions: E:T 5:1, 10:1, 25:1, 5 h
Procedure: as §5, with “h.” for “h. After incubation, the cells were stained with PI (1 mg/mL).”
Because increased perforin expression by immune cells often indicates enhanced antitumor cytolytic activity, the cytotoxic T-lymphocyte activity of mouse CD8^+ T cells was measured after CD80-Fc-based treatment. […] The survival of target cells was determined as the percentage of normalized target cells that remained after incubation with CD8^+ T cells. […]

mouse CD8^+ T cells = experiment: CD8^+ T cell viability after JSI-124 (7-AAD), mouse; format: cell-based; conditions: 48 h, JSI-124 0.1 μM, versus vehicle control
Procedure: as §7, §2

SMILES | NKG2D expression on CD8^+ T cells (Lck/JAK/STAT3 signaling [1]) | phosphorylation of STAT3 in response to CD80-Fc (STAT3 [2]) | NKG2D expression on CD8^+ T cells (Lck/JAK/STAT3 signaling [3]) | phosphorylation of STAT3 in response to CD80-Fc (STAT3 [4]) | degranulation (CD107a) (K562 cells) | NKG2D expression [5] | cell viability (human CD8^+ T cells) | cytolytic activity against LLC cells (LLC cells) | cell viability (mouse CD8^+ T cells)
N#C/C(=C/c1ccc(O)c(O)c1)C(=O)NCc1ccccc1 [AG-490] | dramatic decreases | completed abolished | dramatic decreases | completed abolished | – | – | – | – | –
CC(C)(O)/C=C/C(=O)[C@](C)(O)[C@H]1[C@H](O)C[C@@]2(C)[C@@H]3CC=C4[C@@H](C=C(O)C(=O)C4(C)C)[C@]3(C)C(=O)C[C@]12C [JSI-124] | dramatic decreases | completed abolished | dramatic decreases | completed abolished | reduced degranulation | abolished NKG2D expression | markedly decreased | impaired the cytolytic activity | markedly decreased
CC(C)(C)n1nc(-c2ccc(Cl)cc2)c2c(N)ncnc21 [PP2] | dramatic decreases | completed abolished | dramatic decreases | completed abolished | – | – | – | – | –
